Results reported in US8134015B2, “Compound inhibiting in vivo phosphorous transport and medicine containing the same” (Kyowa Hakko Kirin Co., Ltd., priority 2003, dated 2012).

Target: T1, rat NaPi-2b (Rattus norvegicus, UniProt Q9JJ09)
T1 construct: expressed in transfected cells; host or cells: Xenopus oocytes injected with cRNA
T1 sequence (Q9JJ09 1-695): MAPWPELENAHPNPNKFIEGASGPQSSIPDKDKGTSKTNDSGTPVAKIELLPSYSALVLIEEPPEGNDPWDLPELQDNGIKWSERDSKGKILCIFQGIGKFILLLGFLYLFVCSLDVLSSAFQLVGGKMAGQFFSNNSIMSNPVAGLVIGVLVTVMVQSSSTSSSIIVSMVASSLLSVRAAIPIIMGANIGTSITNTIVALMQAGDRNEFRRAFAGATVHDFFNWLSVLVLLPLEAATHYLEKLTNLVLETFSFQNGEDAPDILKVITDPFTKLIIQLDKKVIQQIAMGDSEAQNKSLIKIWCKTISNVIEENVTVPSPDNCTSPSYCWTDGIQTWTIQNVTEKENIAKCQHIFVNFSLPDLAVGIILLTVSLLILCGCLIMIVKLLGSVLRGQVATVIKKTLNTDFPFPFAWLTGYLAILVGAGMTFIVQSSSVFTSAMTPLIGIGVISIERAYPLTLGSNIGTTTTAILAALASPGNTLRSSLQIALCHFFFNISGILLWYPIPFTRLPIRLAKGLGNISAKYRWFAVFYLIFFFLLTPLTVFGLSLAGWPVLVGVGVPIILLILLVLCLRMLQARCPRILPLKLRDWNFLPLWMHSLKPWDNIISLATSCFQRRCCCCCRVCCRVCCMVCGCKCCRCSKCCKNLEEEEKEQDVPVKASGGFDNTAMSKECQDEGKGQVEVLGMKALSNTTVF
Test: Sodium-dependent phosphate uptake of Xenopus oocytes which expressed NaPi-2b (32P)
Assay type: cell-based
Details: Xenopus oocytes expressing rat NaPi-2b, 32P radioactive phosphorus; read-out: IC50 (phosphate uptake inhibitory activity)
Method in brief: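 Inhibition at 300 μM and 100 μM was read off one inhibition curve of 32P phosphate uptake. Uptake was measured in Xenopus oocytes cultured 2 days after injection of cRNA for cloned rat NaPi-2b.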

Structure (SMILES)	IC50 [µM]
O=C(Nc1ccc(Br)cc1C(=O)N/N=C/c1ccc(Cl)c(C(F)(F)F)c1)c1ccc(CN2CCN(CC(=O)N3CCOCC3)CC2)cc1 [Compound 306, N-[4-Bromo-2-(4-chloro-3-trifluoromethyl-benzylidene-hydrazinocarbonyl)-phenyl]-4-[4-(2-morpholin-4-yl-2-oxo-ethyl)-piperazin-1-ylmethyl]-benzamide]	2.13
COc1ccc(/C=N/NC(=O)c2cc(Br)ccc2NC(=O)c2ccc(CN3CCN(CC(=O)N4CCOCC4)CC3)cc2)cc1 [Compound 307, N-[4-Bromo-2-(4-methoxy-benzylidene-hydrazinocarbonyl)-phenyl]-4-[4-(2-morpholin-4-yl-2-oxo-ethyl)-piperazin-1-ylmethyl]-benzamide]	41.2
Cc1ccc(/C=N/NC(=O)c2cc(Br)ccc2NC(=O)c2ccc(CN3CCC(N4CCCCC4)CC3)cc2)cc1C [Compound 308, 4-[1,4′]Bipiperidinyl-1′-ylmethyl-N-[4-bromo-2-(3,4-dimethyl-benzylidene-hydrazinocarbonyl)-phenyl]-benzamide]	2.76
Cc1ccc(/C=N/NC(=O)c2cc(Br)ccc2NC(=O)c2ccc(CN3CCC(N4CCCCC4)CC3)cc2)cc1 [Compound 309, 4-[1,4′]Bipiperidinyl-1′-ylmethyl-N-[4-bromo-2-(4-methyl-benzylidene-hydrazinocarbonyl)-phenyl]-benzamide]	15.1
Cc1cccc(/C=N/NC(=O)c2cc(Br)ccc2NC(=O)c2ccc(CN3CCC(N4CCCCC4)CC3)cc2)c1 [Compound 310, 4-[1,4′]Bipiperidinyl-1′-ylmethyl-N-[4-bromo-2-(3-methyl-benzylidene-hydrazinocarbonyl)-phenyl]-benzamide]	7.82
O=C(Nc1ccc(Br)cc1C(=O)N/N=C/c1ccc(F)cc1)c1ccc(CN2CCC(N3CCCCC3)CC2)cc1 [Compound 311, 4-[1,4′]Bipiperidinyl-1′-ylmethyl-N-[4-bromo-2-(4-fluoro-benzylidene-hydrazinocarbonyl)-phenyl]-benzamide]	7.78
O=C(Nc1ccc(Br)cc1C(=O)N/N=C/c1cccc(F)c1)c1ccc(CN2CCC(N3CCCCC3)CC2)cc1 [Compound 312, 4-[1,4′]Bipiperidinyl-1′-ylmethyl-N-[4-bromo-2-(3-fluoro-benzylidene-hydrazinocarbonyl)-phenyl]-benzamide]	3.31
O=C(Nc1ccc(Br)cc1C(=O)N/N=C/c1ccc(Cl)c(C(F)(F)F)c1)c1ccc(CN2CCC(N3CCCCC3)CC2)cc1 [Compound 313, 4-[1,4′]Bipiperidinyl-1′-ylmethyl-N-[4-bromo-2-(4-chloro-3-trifluoromethyl-benzylidene-hydrazinocarbonyl)-phenyl]-benzamide]	1.24
COc1ccc(/C=N/NC(=O)c2cc(Br)ccc2NC(=O)c2ccc(CN3CCC(N4CCCCC4)CC3)cc2)cc1 [Compound 314, 4-[1,4′]Bipiperidinyl-1′-ylmethyl-N-[4-bromo-2-(4-methoxy-benzylidene-hydrazinocarbonyl)-phenyl]-benzamide]	3.39
Cc1ccc(/C=N/NC(=O)c2cc(Br)ccc2NC(=O)c2ccc(CN3CCN(CCO)CC3)cc2)cc1C [Compound 316, N-[4-Bromo-2-(3,4-dimethyl-benzylidene-hydrazinocarbonyl)-phenyl]-4-[4-(2-hydroxy-ethyl)-piperazin-1-ylmethyl]-benzamide]	4.71
Cc1ccc(/C=N/NC(=O)c2cc(Br)ccc2NC(=O)c2ccc(CN3CCN(CCO)CC3)cc2)cc1 [Compound 317, N-[4-Bromo-2-(4-methyl-benzylidene-hydrazinocarbonyl)-phenyl]-4-[4-(2-hydroxy-ethyl)-piperazin-1-ylmethyl]-benzamide]	5.02
Cc1cccc(/C=N/NC(=O)c2cc(Br)ccc2NC(=O)c2ccc(CN3CCN(CCO)CC3)cc2)c1 [Compound 318, N-[4-Bromo-2-(3-methyl-benzylidene-hydrazinocarbonyl)-phenyl]-4-[4-(2-hydroxy-ethyl)-piperazin-1-ylmethyl]-benzamide]	2.49
